Measurements: paper PMC4639751, “Development of 1-N-^11C-Methyl-L- and -D-Tryptophan for pharmacokinetic imaging of the immune checkpoint inhibitor 1-Methyl-Tryptophan” (Scientific Reports, 2015)

Assays:
[1] = PET, rats
Experimental: Emission scans were acquired in three-dimensional list mode with an energy window of 350–650 keV under isoflurane anesthesia, from 0 to 60 min after radioprobe administration. All list-mode acquisition data were sorted into three-dimensional sinograms, which were then Fourier-rebinned into two-dimensional sonograms (frames × min: 4 × 1, 8 × 2, 8 × 5), and corrections for scanner dead time, randoms, and decay of the injected radioprobe. Dynamic images were reconstructed with filtered back-projection using a Hanning filter and a Nyquist cut-off of 0.5 cycles/pixel. Immediately after completion of PET scans, contrast-enhanced CT scans were performed in the rats by using the small-animal CT system (R_mCT2; Rigaku, Tokyo) after injection of 1 mL of non-ionic contrast medium (Iopamiron 370, Bayer, Osaka). The scan conditions included radiation parameters of 200 μA and 90 kV, FOV of 60 mm, and acquisition time of 34 s. CT images were collected, reconstructed, and observed using I-View-R software (Rigaku, The Woodlands, TX). Averaged CT attenuation images and dynamic PET images were reconstructed and fused using the Siemens Inveon Research Workplace (IRW) 4.0 software.
Regions of interest (ROI) in major organs and tissues were drawn in the PET/CT fusion images by manual outlining the organs and tissues in the CT images throughout the image slices by using IRW 4.0 software. The average radioactivity concentration was obtained from mean pixel values in the ROI volume. Regional uptake of radioactivity was decay-corrected to the injection time and expressed as the standardized uptake value (SUV), normalized for injected radioactivity and body weight. SUV was calculated as SUV = (radioactivity per cubic centimeter tissue/injected radioactivity) × body weight in grams. TACs of the radioprobes in individual organ and tissue were determined. Values of area under time-activity curves (AUC2–60 min, SUV × min) were calculated from 2 to 60 min post-injection to minimize the early perfusion effects.

[2] = Ex vivo biodistribution studies; settings: SD rats; for Biodistribution, radioactivity in Pancreas / Biodistribution, radioactivity in Blood / Biodistribution, radioactivity in Brain / Biodistribution, radioactivity in Heart / Biodistribution, radioactivity in Intestine / Biodistribution, radioactivity in Liver / Biodistribution, radioactivity in Lung / Biodistribution, radioactivity in Muscle / Biodistribution, radioactivity in Spleen / Biodistribution, radioactivity in Kidney: mean ± SEM, n = 4
Excerpt: Major organs and tissues (blood, heart, lung, liver, pancreas, spleen, kidney, intestine, muscle, and brain), were promptly excised, harvested, and weighed. Radioactivity was counted using a γ-counter and expressed as a percentage of the injected dose per gram of wet tissue (%ID/g). All radioactivity measurements were corrected for decay.

[3] = In vitro stability assay in rat plasma; assay type: in vitro ADME; settings: 37 °C, 90 min incubation, HPLC analysis
Experimental: To determine the in vitro property of the two newly-developed radioprobes, we performed plasma stability studies by HPLC analysis at 37 °C for 90 min. […] More than 95% of ^11C-L-1Mtrp and ^11C-D-1Mtrp remained intact and no detectable metabolites were found at least 90 min after plasma incubation in vitro.
^11C-L-1MTrp and ^11C-D-1MTrp (70–74 MBq, 0.4−0.6 nmol) was dissolved in 2 mL of freshly isolated rat plasma and incubated at 37 °C for 90 min. After 0, 30, 60 and 90 min, an aliquot of 300 μL incubated mixture was taken, proteins in plasma were precipitated with equal volumes of 1 M HClO4 solution, followed by centrifugation at 15000 rpm for 2 min at 4 °C. The supernatant was collected and analyzed by HPLC (Capcell Pack UG80 column, 4.6 mm i.d. × 250 mm) with […] phosphate buffer/CH3CN (8.5/1.5, v/v) at a flow rate of 1 mL/min.

[4] = Ex vivo metabolite studies; assay type: in vivo; settings: SD rats; for Ex vivo metabolite analysis, % of tailored L- and D-1MTrp entity in Brain / Ex vivo metabolite analysis, % of tailored L- and D-1MTrp entity in Pancreas / Ex vivo metabolite analysis, % of tailored L- and D-1MTrp entity in Plasma: HPLC, mean ± SEM, n = 4
Experimental: To validate the derivation of radioactivity into the relevant organs and tissues, we assessed the metabolites of both radiolabelled isomers in the blood, brain, and pancreas of rats. […] Few radioactive metabolites were detected in these three tissues at 15 and 60 min after ^11C-L-1MTrp and ^11C-D-1MTrp injection.
SD rats were injected with ^11C-L-1MTrp or ^11C-D-1MTrp (70–74 MBq, 0.4–0.6 nmol) via a lateral tail vein. The animals were sacrificed by cervical dislocation at 15 and 60 min after the injection. Blood was collected and centrifuged at 15000 rpm for 2 min at 4 °C to separate the plasma. Brain and pancreas were rapidly removed, then homogenized in equal volumes of 1 M HClO4 solution with a Silent Crusher S homogenizer (Heidolph Instruments). Plasma and homogenates of brain and pancreas from rats were deproteinized and then analyzed by HPLC as described in the stability assay in vitro.

[5] = 60 min after injection, mean ± SEM, four rats

SMILES: Cn1cc(C[C@H](N)C(=O)O)c2ccccc21 [L-1MTrp, 1-Methyl-L-tryptophan, reference compound]
- SUV in the pancreas [1, 5]: 2.28
- Biodistribution, radioactivity in Pancreas ([2]; 60 min after injection): 2.27 %ID/g tissue

SMILES: [11CH3]n1cc(C[C@@H](N)C(=O)O)c2ccccc21 [^11C-D-1MTrp, 1-N-^11C-methyl-D-tryptophan]
- Fraction remaining intact in rat plasma [3]: More than 95%
- SUV in the kidney [1, 5]: 1.79 ± 0.07
- SUV in the other organs (other than kidneys) ([1]; 60 min after injection, span over organs): 0.20−0.61
- Maximum accumulation (SUV) in the kidneys ([1]; within 5 min after administration): 6.03 ± 0.43
- Radioactivity in the brain, pancreas, and blood associated with L- and D-1MTrp ([4]; 15 and 60 min after injection): more than 94%
- Ex vivo metabolite analysis, % of tailored L- and D-1MTrp entity in Brain ([4]; 15 min after injection): 95.06 ± 0.38%
- Ex vivo metabolite analysis, % of tailored L- and D-1MTrp entity in Pancreas ([4]; 15 min after injection): 94.08 ± 0.51%
- Ex vivo metabolite analysis, % of tailored L- and D-1MTrp entity in Plasma ([4]; 15 min after injection): 94.45 ± 0.03%
- Ex vivo metabolite analysis, % of tailored L- and D-1MTrp entity in Brain ([4]; 60 min after injection): 98.16 ± 0.47%
- Ex vivo metabolite analysis, % of tailored L- and D-1MTrp entity in Pancreas ([4]; 60 min after injection): 96.31 ± 0.48%
- Ex vivo metabolite analysis, % of tailored L- and D-1MTrp entity in Plasma ([4]; 60 min after injection): 98.81 ± 0.25%
- Biodistribution, radioactivity in Blood ([2]; 1 min after injection): 1.47 ± 0.02 %ID/g tissue
- Biodistribution, radioactivity in Brain ([2]; 1 min after injection): 0.04 ± 0.00 %ID/g tissue
- Biodistribution, radioactivity in Heart ([2]; 1 min after injection): 0.58 ± 0.02 %ID/g tissue
- Biodistribution, radioactivity in Intestine ([2]; 1 min after injection): 0.93 ± 0.02 %ID/g tissue
- Biodistribution, radioactivity in Liver ([2]; 1 min after injection): 1.24 ± 0.03 %ID/g tissue
- Biodistribution, radioactivity in Lung ([2]; 1 min after injection): 0.79 ± 0.03 %ID/g tissue
- Biodistribution, radioactivity in Muscle ([2]; 1 min after injection): 0.12 ± 0.00 %ID/g tissue
- Biodistribution, radioactivity in Pancreas ([2]; 1 min after injection): 0.76 ± 0.07 %ID/g tissue
- Biodistribution, radioactivity in Spleen ([2]; 1 min after injection): 0.62 ± 0.02 %ID/g tissue
- Biodistribution, radioactivity in Blood ([2]; 5 min after injection): 0.79 ± 0.03 %ID/g tissue
- Biodistribution, radioactivity in Brain ([2]; 5 min after injection): 0.05 ± 0.01 %ID/g tissue
- Biodistribution, radioactivity in Heart ([2]; 5 min after injection): 0.55 ± 0.02 %ID/g tissue
- Biodistribution, radioactivity in Intestine ([2]; 5 min after injection): 0.68 ± 0.02 %ID/g tissue
- Biodistribution, radioactivity in Liver ([2]; 5 min after injection): 0.97 ± 0.02 %ID/g tissue
- Biodistribution, radioactivity in Lung ([2]; 5 min after injection): 0.60 ± 0.02 %ID/g tissue
- Biodistribution, radioactivity in Muscle ([2]; 5 min after injection): 0.26 ± 0.01 %ID/g tissue
- Biodistribution, radioactivity in Pancreas ([2]; 5 min after injection): 1.03 ± 0.15 %ID/g tissue
- Biodistribution, radioactivity in Spleen ([2]; 5 min after injection): 0.51 ± 0.02 %ID/g tissue
- Biodistribution, radioactivity in Blood ([2]; 15 min after injection): 0.49 ± 0.01 %ID/g tissue
- Biodistribution, radioactivity in Brain ([2]; 15 min after injection): 0.08 ± 0.00 %ID/g tissue
- Biodistribution, radioactivity in Heart ([2]; 15 min after injection): 0.52 ± 0.02 %ID/g tissue
- Biodistribution, radioactivity in Intestine ([2]; 15 min after injection): 0.53 ± 0.00 %ID/g tissue
- Biodistribution, radioactivity in Kidney ([2]; 15 min after injection): 3.66 ± 0.15 %ID/g tissue
- Biodistribution, radioactivity in Liver ([2]; 15 min after injection): 0.64 ± 0.01 %ID/g tissue
- Biodistribution, radioactivity in Lung ([2]; 15 min after injection): 0.46 ± 0.02 %ID/g tissue
- Biodistribution, radioactivity in Muscle ([2]; 15 min after injection): 0.35 ± 0.01 %ID/g tissue
- Biodistribution, radioactivity in Pancreas ([2]; 15 min after injection): 1.01 ± 0.06 %ID/g tissue
- Biodistribution, radioactivity in Spleen ([2]; 15 min after injection): 0.48 ± 0.01 %ID/g tissue
- Biodistribution, radioactivity in Blood ([2]; 30 min after injection): 0.40 ± 0.01 %ID/g tissue
- Biodistribution, radioactivity in Brain ([2]; 30 min after injection): 0.11 ± 0.00 %ID/g tissue
- Biodistribution, radioactivity in Heart ([2]; 30 min after injection): 0.42 ± 0.02 %ID/g tissue
- Biodistribution, radioactivity in Intestine ([2]; 30 min after injection): 0.40 ± 0.01 %ID/g tissue
- Biodistribution, radioactivity in Kidney ([2]; 30 min after injection): 2.12 ± 0.16 %ID/g tissue
- Biodistribution, radioactivity in Liver ([2]; 30 min after injection): 0.47 ± 0.01 %ID/g tissue
- Biodistribution, radioactivity in Lung ([2]; 30 min after injection): 0.37 ± 0.01 %ID/g tissue
- Biodistribution, radioactivity in Muscle ([2]; 30 min after injection): 0.38 ± 0.03 %ID/g tissue
- Biodistribution, radioactivity in Pancreas ([2]; 30 min after injection): 1.21 ± 0.05 %ID/g tissue
- Biodistribution, radioactivity in Spleen ([2]; 30 min after injection): 0.40 ± 0.02 %ID/g tissue
- Biodistribution, radioactivity in Blood ([2]; 60 min after injection): 0.32 ± 0.01 %ID/g tissue
- Biodistribution, radioactivity in Brain ([2]; 60 min after injection): 0.15 ± 0.01 %ID/g tissue
- Biodistribution, radioactivity in Heart ([2]; 60 min after injection): 0.30 ± 0.01 %ID/g tissue
- Biodistribution, radioactivity in Intestine ([2]; 60 min after injection): 0.32 ± 0.01 %ID/g tissue
- Biodistribution, radioactivity in Kidney ([2]; 60 min after injection): 1.16 ± 0.03 %ID/g tissue
- Biodistribution, radioactivity in Liver ([2]; 60 min after injection): 0.37 ± 0.01 %ID/g tissue
- Biodistribution, radioactivity in Lung ([2]; 60 min after injection): 0.28 ± 0.01 %ID/g tissue
- Biodistribution, radioactivity in Muscle ([2]; 60 min after injection): 0.33 ± 0.01 %ID/g tissue
- Biodistribution, radioactivity in Pancreas ([2]; 60 min after injection): 1.03 ± 0.06 %ID/g tissue
- Biodistribution, radioactivity in Spleen ([2]; 60 min after injection): 0.32 ± 0.01 %ID/g tissue
- Measured uptake in organs other than kidneys and pancreas ([2]; 60 min after radioprobe injection, span over organs): 0.15−0.37 % ID/g
